Source: article PMC11123956, “Nobiletin Stimulates Adrenal Hormones and Modulates the Circadian Clock in Mice” (Nutrients, 2024)
Where two headings read alike, the source gives them in different places.

Tests used:
[1] = system: Bmal1 mRNA; test: Real-time RT-PCR of Bmal1 mRNA in peripheral tissues; assay type: in vivo, mice; conditions: after a single treatment
Procedure: (§1) Male C57BL/6J mice (7 weeks old) were purchased from Charles River Japan (Kanagawa, Japan) and used for the serum hormone assay and RT-PCR. Male ICR mice were purchased from Tokyo Laboratory Animals Science Co., Ltd. (Tokyo, Japan), and female PERIOD2::LUCIFERASE (PER2::LUC) knock-in mice (ICR background) bred at Waseda University were used for blood glucose measurements and in vivo imaging assays, respectively. The mice were all housed under conditions of controlled temperature (23 °C ± 3 °C), humidity (50% ± 20%), and lighting (lights on from 07:00 to 19:00 at Taisho Pharmaceutical Co., Ltd. or from 08:00 to 20:00 at Waseda University). In the 24 h cycle, Zeitgeber time 0 (ZT0) was designated as the time when the lights were turned on, and ZT12 was designated as the time when the lights were turned off. All the mice were given access to food and tap water ad libitum, and nobiletin (10–100 mg/kg; purchased from FUJIFILM Wako Pure Chemical Corporation, Osaka, Japan) was administered by intraperitoneal (i.p.) injection in the vehicle (10 mL/kg body weight) containing 0.5% carboxymethyl cellulose (CMC). Rolipram (PDE4 inhibitor, FUJIFILM Wako Pure Chemical Corporation) and SR1078 (RORα/γ agonist, FUJIFILM Wako Pure Chemical Corporation) were also used for the experiment at 10 mg/kg in 0.5% CMC [12]. Mice were euthanized by rapid decapitation for whole blood samples.
(§2) Figure 3 Nobiletin stimulated adrenaline and corticosterone secretion, and induced acute clock gene expression changes. (A–C) Mice received intraperitoneal injections of control (0.5% CMC) or nobiletin (10 or 100 mg/kg) at ZT3. (A) Serum corticosterone at 1 h after treatment (n = 6 in each). $$$ p < 0.001 by Tukey’s multiple comparisons test. (B) Serum corticosterone and adrenaline at 1, 2, and 4 h after treatment (n = 4 in each). # p < 0.05 vs. control at each time point by Mann–Whitney test; ** p < 0.01 vs. control at each time point by Student’s t-test. (C) Blood glucose changes after treatment (n = 9 in each). Statistics of 2-way repeated ANOVA are indicated on the graph. […]

[2] = system: PDE4B; design: method as in PMID 22451408; conditions: cited from earlier work
[3] = system: PDE1C; design: method as in PMID 22451408; conditions: cited from earlier work
[4] = system: CRF; design: method as in PMID 9179387; conditions: intraperitoneal injection to mice; cited from earlier work
[5] = system: corticosterone; conditions: cited from earlier work
[6] = system: CRF; design: method as in PMID 9179387; conditions: isolated hypothalamic in vitro; cited from earlier work
[7] = system: serum adrenaline; test: Serum adrenaline ELISA after i.p. injection; assay type: in vivo, mice; conditions: 10 mg/kg i.p. at ZT3, 1 h after treatment
Procedure: (§3) Male C57BL/6J mice (7 weeks old) were purchased from Charles River Japan (Kanagawa, Japan) and used for the serum hormone assay and RT-PCR. Male ICR mice were purchased from Tokyo Laboratory Animals Science Co., Ltd. (Tokyo, Japan), and female PERIOD2::LUCIFERASE (PER2::LUC) knock-in mice (ICR background) bred at Waseda University were used for blood glucose measurements and in vivo imaging assays, respectively. The mice were all housed under conditions of controlled temperature (23 °C ± 3 °C), humidity (50% ± 20%), and lighting (lights on from 07:00 to 19:00 at Taisho Pharmaceutical Co., Ltd. or from 08:00 to 20:00 at Waseda University). In the 24 h cycle, Zeitgeber time 0 (ZT0) was designated as the time when the lights were turned on, and ZT12 was designated as the time when the lights were turned off. […]
(§4) Serum corticosterone, adrenaline, and adreno-corticotropic hormone (ACTH) levels, and corticotropin releasing factor (CRF) in the hypothalamus, were measured using enzyme-linked immunosorbent assay (ELISA). […] Blood glucose levels were measured using a Glucose PILOT kit (Aventir Biotech, LLC, Carlsbad, CA, USA). The range of blood glucose that could be precisely measured with the kit was 20–600 mg/dL. […]

[8] = system: serum corticosterone; test: Serum corticosterone ELISA after i.p. injection; assay type: in vivo, mice; conditions: 10 mg/kg i.p. at ZT3, 1 h after treatment
Procedure: as §3, §4

[9] = system: Per1 mRNA; test: Real-time RT-PCR of Per1 mRNA in peripheral tissues; assay type: in vivo, mice; conditions: stomach and lung, 2 h after 10 mg/kg i.p.
Procedure: as §1, §2

[10] = system: adrenaline; design: method as in PMID 9245486; conditions: intraperitoneal, 40–200 μg/kg; cited from earlier work
[11] = system: Per2 mRNA; test: Real-time RT-PCR of Per2 mRNA in peripheral tissues; assay type: in vivo, mice; conditions: stomach and lung, 2 h after 10 mg/kg i.p.
Procedure: as §1, with “samples. […]” for “samples.”

Structure (SMILES): O=C(Nc1ccc(C(O)(C(F)(F)F)C(F)(F)F)cc1)c1ccc(C(F)(F)F)cc1 [SR1078]
- Bmal1 expression [1]: did not change significantly

Structure (SMILES): COc1cc(-c2cc(=O)c3c(O)c(OC)c(O)c(OC)c3o2)ccc1O [Sudachitin]
- inhibition of PDE4B [2]: inhibit
- inhibition of PDE1C [3]: inhibit

Structure (SMILES): CCCCn1c(=O)c2c(ncn2CC(C)=O)n(CCCC)c1=O [denbufylline]
- CRF induction in vivo [4]: produced CRF induction
- corticosterone secretion ([5]; via the HPA system): promotes corticosterone secretion
- CRF production [6]: significant production of CRF

Structure (SMILES): COc1ccc(C2CNC(=O)C2)cc1OC1CCCC1 (stereo not drawn) [rolipram]
- adrenaline secretion [7]: detected
- corticosterone secretion [8]: detected
- Per1 mRNA changes [9]: detected
- corticosterone secretion ([5]; intraperitoneal, 40–200 μg/kg): increases
- serum corticosterone ([5]; low dose, 1.6 and 8 μg/kg): did not produce serum corticosterone increase
- Bmal1 expression [1]: did not change
- CRF production [6]: significant production of CRF
- adrenaline secretion [10]: increases
- Per2 mRNA changes [11]: detected
